How the values were obtained:
Kv1.3 potassium channel = target: T1, Kv1.3 potassium channel (Homo sapiens, UniProt P22001); experiment: Kv1.3 potassium channel blocker activity, automated whole-cell patch clamp (Patchliner); type: cell-based; conditions: Kv1.3 potassium channel, whole-cell patch clamp
T1 construct: expressed in transfected cells
Procedure, shortened: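 IC50 came from Hill-equation fits of peak and AUC currents from the final pulse at each concentration, normalized to compound-free control. Compounds applied consecutively at 30 nM to 100 μM (up to 0.3% DMSO) to Kv1.3-expressing CHO-K1 cells, P/4 leak subtraction. Pulses were +40 mV, 100 ms, from −90 mV holding, at 0.1 Hz on Patchliner.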

hERG channel = target: T2, hERG channel (Homo sapiens, UniProt Q12809); experiment: hERG electrophysiology, automated whole-cell patch clamp (Patchliner); type: cell-based; conditions: hERG channel, whole-cell patch clamp
T2 construct: expressed in transfected cells
T2 sequence (Q12809 whole entry): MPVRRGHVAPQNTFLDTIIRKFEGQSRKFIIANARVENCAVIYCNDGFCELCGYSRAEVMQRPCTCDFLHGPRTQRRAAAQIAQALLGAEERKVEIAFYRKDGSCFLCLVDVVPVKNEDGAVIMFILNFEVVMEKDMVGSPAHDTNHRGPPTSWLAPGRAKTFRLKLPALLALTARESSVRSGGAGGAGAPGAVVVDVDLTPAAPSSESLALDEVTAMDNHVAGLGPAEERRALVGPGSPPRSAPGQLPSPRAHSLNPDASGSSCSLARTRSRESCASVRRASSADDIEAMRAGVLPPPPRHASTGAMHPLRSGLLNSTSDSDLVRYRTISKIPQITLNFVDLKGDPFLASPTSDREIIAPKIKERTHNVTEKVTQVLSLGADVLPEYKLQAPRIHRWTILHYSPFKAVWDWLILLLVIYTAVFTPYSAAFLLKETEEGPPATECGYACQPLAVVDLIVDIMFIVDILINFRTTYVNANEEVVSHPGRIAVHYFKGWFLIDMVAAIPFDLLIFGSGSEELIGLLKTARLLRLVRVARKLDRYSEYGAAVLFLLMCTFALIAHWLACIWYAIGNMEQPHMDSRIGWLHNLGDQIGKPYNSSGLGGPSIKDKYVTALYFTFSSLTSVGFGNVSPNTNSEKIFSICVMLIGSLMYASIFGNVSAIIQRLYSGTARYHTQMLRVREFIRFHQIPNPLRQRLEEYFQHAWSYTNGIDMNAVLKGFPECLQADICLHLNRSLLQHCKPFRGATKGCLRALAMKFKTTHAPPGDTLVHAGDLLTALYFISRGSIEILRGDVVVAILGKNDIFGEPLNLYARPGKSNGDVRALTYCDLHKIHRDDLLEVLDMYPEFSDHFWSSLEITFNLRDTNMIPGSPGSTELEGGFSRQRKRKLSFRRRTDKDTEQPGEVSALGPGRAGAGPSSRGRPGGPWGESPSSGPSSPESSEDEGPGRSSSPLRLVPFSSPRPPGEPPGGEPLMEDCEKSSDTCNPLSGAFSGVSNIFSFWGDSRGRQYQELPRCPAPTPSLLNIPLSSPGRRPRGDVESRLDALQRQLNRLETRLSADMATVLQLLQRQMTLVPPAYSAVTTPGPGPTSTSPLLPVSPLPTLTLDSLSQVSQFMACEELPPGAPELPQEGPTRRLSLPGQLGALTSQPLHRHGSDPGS
Procedure, shortened: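 Currents were recorded at 0.3 Hz from −80 mV, stepping to +20 mV then −50 mV (300 ms each), in stably transfected CHO-K1 cells. Concentrations (30 nM–100 μM, up to 0.3% DMSO) were added sequentially without washout. IC50 came from Hill fits of control-normalized AUC/peak of each train's final pulse.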

T1 sequence (P22001 whole entry): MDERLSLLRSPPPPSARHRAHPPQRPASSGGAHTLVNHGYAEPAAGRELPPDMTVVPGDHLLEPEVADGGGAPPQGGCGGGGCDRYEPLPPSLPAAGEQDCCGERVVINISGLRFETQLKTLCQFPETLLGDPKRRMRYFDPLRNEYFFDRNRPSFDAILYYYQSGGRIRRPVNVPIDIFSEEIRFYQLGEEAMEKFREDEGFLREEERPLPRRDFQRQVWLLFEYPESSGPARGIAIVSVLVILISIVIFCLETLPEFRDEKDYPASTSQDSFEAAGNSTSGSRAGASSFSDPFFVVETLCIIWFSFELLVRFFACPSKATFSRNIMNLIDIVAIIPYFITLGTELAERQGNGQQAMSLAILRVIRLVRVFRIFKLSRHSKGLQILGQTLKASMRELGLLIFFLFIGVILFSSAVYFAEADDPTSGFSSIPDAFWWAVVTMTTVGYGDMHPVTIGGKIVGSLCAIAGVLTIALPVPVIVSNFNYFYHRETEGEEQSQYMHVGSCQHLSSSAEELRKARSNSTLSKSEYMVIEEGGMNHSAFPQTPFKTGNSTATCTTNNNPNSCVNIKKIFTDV

Compound	IC50 (Kv1.3 potassium channel) [nM]	IC50 (hERG channel) [µM]
O=C(CO)N1CC(=O)N2CC[C@@H](c3c(O)ccc(Cl)c3Cl)C[C@H]2C1 [Compound 63, (8R,9aS)-8-(2,3-dichloro-6-hydroxyphenyl)-2-(2-hydroxyacetyl)-hexahydro-1H-pyrido[1,2-a]pyrazin-4-one]	< 1000	< 30
O=C([C@@H](O)CO)N1CC(=O)N2CC[C@H](c3c(O)ccc(Cl)c3Cl)C[C@@H]2C1 [Compound 64, (8S,9aR)-8-(2,3-dichloro-6-hydroxyphenyl)-2-[(2S)-2,3-dihydroxy-propanoyl]-hexahydro-1H-pyrido[1,2-a]pyrazin-4-one]	< 1000	> 30
O=C(C(CO)CO)N1CC(=O)N2C[C@@H](c3c(O)ccc(Cl)c3Cl)C[C@H]2C1 [Compound 65, (7R,8aS)-7-(2,3-dichloro-6-hydroxyphenyl)-2-[3-hydroxy-2-(hydroxymethyl)propanoyl]-hexa-hydropyrrolo[1,2-a]pyrazin-4-one]	< 1000	> 30
CCO[C@H](CO)C(=O)N1CC(=O)N2C[C@@H](c3c(O)ccc(Cl)c3Cl)C[C@H]2C1 [Compound 66, (7R,8aS)-7-(2,3-dichloro-6-hydroxyphenyl)-2-[(2R)-2-ethoxy-3-hydroxypropanoyl]-hexahydropyrrolo[1,2-a]pyrazin-4-one]	< 1000	> 30
O=C1CN(C(=O)C2(CO)CC2)C[C@@H]2C[C@H](c3c(O)ccc(Cl)c3Cl)CN12 [Compound 67, (7R,8aS)-7-(2,3-dichloro-6-hydroxyphenyl)-2-[1-(hydroxymethyl)cyclopro-panecarbonyl]-hexahydropyrrolo[1,2-a]pyrazin-4-one]	< 1000	> 30
O=C(CC(F)F)N1CC(=O)N2C[C@@H](c3c(O)ccc(Cl)c3Cl)C[C@H]2C1 [Compound 68, (7R,8aS)-7-(2,3-dichloro-6-hydroxyphenyl)-2-(3,3-difluoropropanoyl)-hexahydropyrrolo [1,2-a]pyrazin-4-one]	< 1000	> 30
CC[C@@H](O)CC(=O)N1CC(=O)N2C[C@@H](c3c(O)ccc(Cl)c3Cl)C[C@H]2C1 [Compound 69, (7R,8aS)-7-(2,3-dichloro-6-hydroxyphenyl)-2-[(3R)-3-hydroxypentanoyl]-hexahydropyrrolo [1,2-a]pyrazin-4-one]	< 1000	> 30
CC[C@H](O)CC(=O)N1CC(=O)N2C[C@@H](c3c(O)ccc(Cl)c3Cl)C[C@H]2C1 [Compound 70, (7R,8aS)-7-(2,3-dichloro-6-hydroxyphenyl)-2-[(3S)-3-hydroxypentanoyl]-hexahydropyrrolo [1,2-a]pyrazin-4-one]	< 1000	< 30
O=C(C[C@H](O)C1CC1)N1CC(=O)N2C[C@@H](c3c(O)ccc(Cl)c3Cl)C[C@H]2C1 [Compound 71, (7R,8aS)-2-[(3S)-3-cyclopropyl-3-hydroxypropanoyl]-7-(2,3-dichloro-6-hydroxyphenyl)-hexahydropyrrolo [1,2-a]pyrazin-4-one]	< 1000	< 30
O=C(C[C@@H](O)C1CC1)N1CC(=O)N2C[C@@H](c3c(O)ccc(Cl)c3Cl)C[C@H]2C1 [Compound 72, (7R,8aS)-2-[(3R)-3-cyclopropyl-3-hydroxypropanoyl]-7-(2,3-dichloro-6-hydroxyphenyl)-hexahydropyrrolo [1,2-a]pyrazin-4-one]	< 1000	< 30
O=C(CC(O)C(F)F)N1CC(=O)N2C[C@@H](c3c(O)ccc(Cl)c3Cl)C[C@H]2C1 (stereo partly drawn) [Compound 73, (7R,8aS)-7-(2,3-dichloro-6-hydroxyphenyl)-2-(4,4-difluoro-3-hydroxybutanoyl)-hexahydropyrrolo [1,2-a]pyrazin-4-one]	< 1000	> 30
O=C([C@@H]1OCC[C@@H]1O)N1CC(=O)N2C[C@@H](c3c(O)ccc(Cl)c3Cl)C[C@H]2C1 [Compound 74, (7R,8aS)-7-(2,3-dichloro-6-hydroxyphenyl)-2-[(2R,3S)-3-hydroxyoxolane-2-carbonyl]-hexahydropyrrolo [1,2-a]pyrazin-4-one]	< 1000	> 30
